Source: ChEMBL document CHEMBL5653615 (J Biol Chem, 2013)

Assays:
[1] = target: Non-receptor tyrosine-protein kinase TYK2 (Homo sapiens) (UniProt P29597); assay: Inhibition of human TYK2 at 500 nM by HotSpot assay relative to control
[2] = target: Homeodomain-interacting protein kinase 2 (Homo sapiens) (UniProt Q9H2X6); assay: Inhibition of human HIPK2 at 500 nM by HotSpot assay relative to control
[3] = target: T1, Serine/threonine-protein kinase D2 (Homo sapiens) (UniProt Q9BZL6); assay: Inhibition of human PRKD2 at 500 nM by HotSpot assay relative to control
T1 sequence (whole entry): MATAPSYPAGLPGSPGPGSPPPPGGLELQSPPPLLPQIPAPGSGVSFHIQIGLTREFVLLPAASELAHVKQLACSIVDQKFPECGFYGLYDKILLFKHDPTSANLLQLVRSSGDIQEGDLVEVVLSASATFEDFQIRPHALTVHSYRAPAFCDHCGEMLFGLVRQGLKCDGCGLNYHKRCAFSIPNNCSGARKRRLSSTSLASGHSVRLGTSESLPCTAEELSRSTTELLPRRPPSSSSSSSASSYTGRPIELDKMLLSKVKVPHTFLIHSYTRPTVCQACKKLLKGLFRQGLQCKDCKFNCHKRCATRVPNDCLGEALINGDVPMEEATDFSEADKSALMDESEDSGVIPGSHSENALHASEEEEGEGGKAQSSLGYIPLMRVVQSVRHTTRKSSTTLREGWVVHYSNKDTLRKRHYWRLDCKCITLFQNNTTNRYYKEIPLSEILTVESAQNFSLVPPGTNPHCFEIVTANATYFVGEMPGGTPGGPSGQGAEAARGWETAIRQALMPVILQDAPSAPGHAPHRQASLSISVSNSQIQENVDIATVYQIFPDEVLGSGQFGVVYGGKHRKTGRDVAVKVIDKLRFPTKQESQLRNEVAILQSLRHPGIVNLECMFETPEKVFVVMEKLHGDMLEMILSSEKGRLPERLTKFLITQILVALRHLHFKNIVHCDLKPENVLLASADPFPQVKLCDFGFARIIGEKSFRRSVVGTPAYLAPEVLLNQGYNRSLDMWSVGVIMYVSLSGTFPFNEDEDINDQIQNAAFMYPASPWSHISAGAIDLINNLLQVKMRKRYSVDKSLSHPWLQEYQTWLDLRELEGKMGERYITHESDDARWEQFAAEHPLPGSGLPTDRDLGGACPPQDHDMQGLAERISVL

[4] = target: MAP kinase-activated protein kinase 5 (Homo sapiens) (UniProt Q8IW41); assay: Inhibition of human MAPKAPK5 at 500 nM by HotSpot assay relative to control
Chain of MAP kinase-activated protein kinase 5 (Homo sapiens) (Q8IW41 whole entry): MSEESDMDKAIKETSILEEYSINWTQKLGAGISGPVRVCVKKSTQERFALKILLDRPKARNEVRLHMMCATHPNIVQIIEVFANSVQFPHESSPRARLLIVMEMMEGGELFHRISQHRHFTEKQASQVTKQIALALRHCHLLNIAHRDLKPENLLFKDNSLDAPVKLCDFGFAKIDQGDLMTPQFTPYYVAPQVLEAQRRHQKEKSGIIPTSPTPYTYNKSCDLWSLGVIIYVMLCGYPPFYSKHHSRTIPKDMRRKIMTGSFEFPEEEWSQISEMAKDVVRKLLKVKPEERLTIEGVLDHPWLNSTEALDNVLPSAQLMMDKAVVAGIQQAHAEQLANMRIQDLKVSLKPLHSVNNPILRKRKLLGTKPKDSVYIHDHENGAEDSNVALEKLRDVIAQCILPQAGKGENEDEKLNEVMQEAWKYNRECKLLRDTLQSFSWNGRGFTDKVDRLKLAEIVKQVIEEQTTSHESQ

[5] = target: Focal adhesion kinase 1 (Homo sapiens) (UniProt Q05397); assay: Inhibition of human FAK at 500 nM by HotSpot assay relative to control
Chain of Focal adhesion kinase 1 (Homo sapiens) (Q05397 2-1052 limits assumed): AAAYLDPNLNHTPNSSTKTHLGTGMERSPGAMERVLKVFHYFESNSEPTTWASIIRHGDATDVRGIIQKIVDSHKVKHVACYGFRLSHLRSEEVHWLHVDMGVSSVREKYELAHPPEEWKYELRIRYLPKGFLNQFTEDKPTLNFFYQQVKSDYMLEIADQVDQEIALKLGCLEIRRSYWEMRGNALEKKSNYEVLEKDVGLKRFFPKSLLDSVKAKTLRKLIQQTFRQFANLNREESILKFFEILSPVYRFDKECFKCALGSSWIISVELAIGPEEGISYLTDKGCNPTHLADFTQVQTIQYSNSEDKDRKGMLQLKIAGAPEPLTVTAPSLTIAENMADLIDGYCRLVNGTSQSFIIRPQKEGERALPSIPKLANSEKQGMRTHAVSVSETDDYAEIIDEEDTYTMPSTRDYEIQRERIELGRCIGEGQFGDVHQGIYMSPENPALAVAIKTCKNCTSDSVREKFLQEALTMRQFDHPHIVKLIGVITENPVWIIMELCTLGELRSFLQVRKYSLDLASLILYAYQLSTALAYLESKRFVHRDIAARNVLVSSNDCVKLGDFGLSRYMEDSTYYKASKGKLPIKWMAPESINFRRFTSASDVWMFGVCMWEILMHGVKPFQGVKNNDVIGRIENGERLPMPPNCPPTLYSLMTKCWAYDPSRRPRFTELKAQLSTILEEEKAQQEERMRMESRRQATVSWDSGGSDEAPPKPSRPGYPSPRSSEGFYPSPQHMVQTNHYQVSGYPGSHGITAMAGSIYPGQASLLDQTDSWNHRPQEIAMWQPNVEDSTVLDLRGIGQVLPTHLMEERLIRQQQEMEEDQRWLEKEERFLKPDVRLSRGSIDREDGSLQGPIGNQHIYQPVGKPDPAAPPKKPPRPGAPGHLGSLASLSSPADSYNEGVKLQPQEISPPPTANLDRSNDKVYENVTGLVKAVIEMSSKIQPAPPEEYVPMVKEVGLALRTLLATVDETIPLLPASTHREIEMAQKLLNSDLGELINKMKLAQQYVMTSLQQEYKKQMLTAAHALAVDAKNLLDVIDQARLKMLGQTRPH

[6] = target: T2, Serine/threonine-protein kinase VRK1 (Homo sapiens) (UniProt Q99986); assay: Inhibition of human VRK1 at 500 nM by HotSpot assay relative to control
T2 sequence (whole entry): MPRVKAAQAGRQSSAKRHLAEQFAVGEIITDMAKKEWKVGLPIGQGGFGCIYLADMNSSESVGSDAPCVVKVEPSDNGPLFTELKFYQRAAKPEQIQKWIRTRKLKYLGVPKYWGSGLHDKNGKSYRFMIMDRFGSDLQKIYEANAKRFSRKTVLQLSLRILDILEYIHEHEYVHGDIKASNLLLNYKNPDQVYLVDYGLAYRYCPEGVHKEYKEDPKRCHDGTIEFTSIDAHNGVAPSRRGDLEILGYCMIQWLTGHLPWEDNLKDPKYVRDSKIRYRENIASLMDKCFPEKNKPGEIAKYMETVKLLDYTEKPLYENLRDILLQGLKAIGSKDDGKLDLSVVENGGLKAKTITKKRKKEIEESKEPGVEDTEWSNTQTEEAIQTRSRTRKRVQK

[7] = target: Serine/threonine-protein kinase PAK 1 (Homo sapiens) (UniProt Q13153); assay: Inhibition of human PAK1 at 500 nM by HotSpot assay relative to control
[8] = target: Serine/threonine-protein kinase PAK 6 (Homo sapiens) (UniProt Q9NQU5); assay: Inhibition of human PAK6 at 500 nM by HotSpot assay relative to control
Chain of Serine/threonine-protein kinase PAK 6 (Homo sapiens) (Q9NQU5 whole entry, looked up): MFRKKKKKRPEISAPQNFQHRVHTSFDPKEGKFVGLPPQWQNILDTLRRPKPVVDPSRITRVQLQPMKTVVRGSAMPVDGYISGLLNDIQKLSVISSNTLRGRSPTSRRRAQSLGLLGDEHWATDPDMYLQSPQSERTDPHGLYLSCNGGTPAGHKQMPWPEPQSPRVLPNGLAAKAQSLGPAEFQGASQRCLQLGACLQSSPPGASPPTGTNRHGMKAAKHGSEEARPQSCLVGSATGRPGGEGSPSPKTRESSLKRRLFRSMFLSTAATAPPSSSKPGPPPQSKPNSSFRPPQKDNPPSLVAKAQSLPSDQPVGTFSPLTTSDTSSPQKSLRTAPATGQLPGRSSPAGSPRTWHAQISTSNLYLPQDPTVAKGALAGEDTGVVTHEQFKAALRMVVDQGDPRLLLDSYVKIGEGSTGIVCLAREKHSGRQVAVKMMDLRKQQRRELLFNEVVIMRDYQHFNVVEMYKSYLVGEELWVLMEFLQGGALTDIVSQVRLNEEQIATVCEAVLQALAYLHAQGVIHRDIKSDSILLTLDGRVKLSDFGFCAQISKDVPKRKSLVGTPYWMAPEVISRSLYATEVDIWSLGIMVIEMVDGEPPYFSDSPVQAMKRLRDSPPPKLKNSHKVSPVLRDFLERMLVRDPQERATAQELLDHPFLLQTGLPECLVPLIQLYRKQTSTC

[9] = target: Serine/threonine-protein kinase Nek4 (Homo sapiens) (UniProt P51957); assay: Inhibition of human NEK4 at 500 nM by HotSpot assay relative to control
[10] = target: Macrophage colony-stimulating factor 1 receptor (Homo sapiens) (UniProt P07333); assay: Inhibition of human FMS at 500 nM by HotSpot assay relative to control
[11] = target: Tyrosine-protein kinase JAK2 (Homo sapiens) (UniProt O60674); assay: Inhibition of human JAK2 at 500 nM by HotSpot assay relative to control
Chain of Tyrosine-protein kinase JAK2 (Homo sapiens) (O60674 whole entry): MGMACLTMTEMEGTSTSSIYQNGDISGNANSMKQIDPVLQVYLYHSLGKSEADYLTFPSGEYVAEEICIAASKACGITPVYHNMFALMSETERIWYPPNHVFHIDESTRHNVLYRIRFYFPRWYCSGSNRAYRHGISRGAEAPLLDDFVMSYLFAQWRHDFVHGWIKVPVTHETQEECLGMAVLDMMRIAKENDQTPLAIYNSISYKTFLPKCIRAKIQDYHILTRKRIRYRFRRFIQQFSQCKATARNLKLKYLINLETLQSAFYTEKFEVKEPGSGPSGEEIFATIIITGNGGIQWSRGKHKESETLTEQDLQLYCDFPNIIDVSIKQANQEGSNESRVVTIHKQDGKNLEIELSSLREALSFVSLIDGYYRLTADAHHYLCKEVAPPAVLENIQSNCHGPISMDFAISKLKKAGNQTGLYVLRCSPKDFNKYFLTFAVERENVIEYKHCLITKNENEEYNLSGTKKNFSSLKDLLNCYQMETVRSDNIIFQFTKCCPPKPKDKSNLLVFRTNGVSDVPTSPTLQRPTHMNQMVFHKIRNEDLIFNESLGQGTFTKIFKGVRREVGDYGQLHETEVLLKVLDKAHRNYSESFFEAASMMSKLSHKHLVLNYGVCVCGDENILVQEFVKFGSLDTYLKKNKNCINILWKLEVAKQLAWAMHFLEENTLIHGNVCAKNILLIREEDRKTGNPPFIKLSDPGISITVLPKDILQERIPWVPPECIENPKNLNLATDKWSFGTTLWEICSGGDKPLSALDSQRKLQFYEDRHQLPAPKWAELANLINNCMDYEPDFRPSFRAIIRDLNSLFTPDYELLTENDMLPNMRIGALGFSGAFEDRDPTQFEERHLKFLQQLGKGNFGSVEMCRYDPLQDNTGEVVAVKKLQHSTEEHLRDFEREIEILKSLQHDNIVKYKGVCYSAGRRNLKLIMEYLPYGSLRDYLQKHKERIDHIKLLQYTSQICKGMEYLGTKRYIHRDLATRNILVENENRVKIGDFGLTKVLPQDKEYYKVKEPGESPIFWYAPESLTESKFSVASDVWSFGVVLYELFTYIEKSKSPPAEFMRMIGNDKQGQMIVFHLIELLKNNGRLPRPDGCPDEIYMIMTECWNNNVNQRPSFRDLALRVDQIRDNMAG

[12] = target: T3, Tyrosine-protein kinase ZAP-70 (Homo sapiens) (UniProt P43403); assay: Inhibition of human ZAP70 at 500 nM by HotSpot assay relative to control
T3 sequence (whole entry): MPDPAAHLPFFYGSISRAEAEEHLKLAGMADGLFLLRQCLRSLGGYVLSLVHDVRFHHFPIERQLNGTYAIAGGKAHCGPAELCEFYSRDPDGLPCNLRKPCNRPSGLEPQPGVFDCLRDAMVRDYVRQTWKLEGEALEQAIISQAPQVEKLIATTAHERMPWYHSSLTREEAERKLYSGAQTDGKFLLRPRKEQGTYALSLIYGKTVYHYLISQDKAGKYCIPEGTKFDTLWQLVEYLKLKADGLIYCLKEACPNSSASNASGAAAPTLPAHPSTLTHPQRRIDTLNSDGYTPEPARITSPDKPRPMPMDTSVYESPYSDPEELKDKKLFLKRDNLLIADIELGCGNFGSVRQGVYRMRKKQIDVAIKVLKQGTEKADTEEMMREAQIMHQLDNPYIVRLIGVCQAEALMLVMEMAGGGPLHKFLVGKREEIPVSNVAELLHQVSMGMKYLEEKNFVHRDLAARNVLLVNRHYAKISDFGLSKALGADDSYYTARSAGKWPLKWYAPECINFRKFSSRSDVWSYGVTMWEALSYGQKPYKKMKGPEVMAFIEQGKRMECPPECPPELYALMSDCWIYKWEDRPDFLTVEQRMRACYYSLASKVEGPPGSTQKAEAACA

[13] = target: Dual specificity protein kinase CLK1 (Homo sapiens) (UniProt P49759); assay: Inhibition of human CLK1 at 500 nM by HotSpot assay relative to control
Chain of Dual specificity protein kinase CLK1 (Homo sapiens) (P49759 whole entry, looked up): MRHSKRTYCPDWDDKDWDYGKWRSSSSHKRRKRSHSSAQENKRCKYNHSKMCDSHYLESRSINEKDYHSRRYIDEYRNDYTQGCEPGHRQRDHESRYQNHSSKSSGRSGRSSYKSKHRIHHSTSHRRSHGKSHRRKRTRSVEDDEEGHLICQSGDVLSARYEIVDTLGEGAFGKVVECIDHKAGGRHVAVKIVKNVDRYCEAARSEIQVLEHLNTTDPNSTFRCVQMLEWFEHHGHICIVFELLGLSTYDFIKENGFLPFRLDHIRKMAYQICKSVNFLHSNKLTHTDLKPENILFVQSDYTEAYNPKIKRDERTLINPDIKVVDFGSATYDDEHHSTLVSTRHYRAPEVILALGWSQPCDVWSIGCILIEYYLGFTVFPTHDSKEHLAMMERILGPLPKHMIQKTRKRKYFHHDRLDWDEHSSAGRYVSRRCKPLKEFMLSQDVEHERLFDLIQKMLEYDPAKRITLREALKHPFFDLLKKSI

Chain of Non-receptor tyrosine-protein kinase TYK2 (Homo sapiens) (P29597 whole entry): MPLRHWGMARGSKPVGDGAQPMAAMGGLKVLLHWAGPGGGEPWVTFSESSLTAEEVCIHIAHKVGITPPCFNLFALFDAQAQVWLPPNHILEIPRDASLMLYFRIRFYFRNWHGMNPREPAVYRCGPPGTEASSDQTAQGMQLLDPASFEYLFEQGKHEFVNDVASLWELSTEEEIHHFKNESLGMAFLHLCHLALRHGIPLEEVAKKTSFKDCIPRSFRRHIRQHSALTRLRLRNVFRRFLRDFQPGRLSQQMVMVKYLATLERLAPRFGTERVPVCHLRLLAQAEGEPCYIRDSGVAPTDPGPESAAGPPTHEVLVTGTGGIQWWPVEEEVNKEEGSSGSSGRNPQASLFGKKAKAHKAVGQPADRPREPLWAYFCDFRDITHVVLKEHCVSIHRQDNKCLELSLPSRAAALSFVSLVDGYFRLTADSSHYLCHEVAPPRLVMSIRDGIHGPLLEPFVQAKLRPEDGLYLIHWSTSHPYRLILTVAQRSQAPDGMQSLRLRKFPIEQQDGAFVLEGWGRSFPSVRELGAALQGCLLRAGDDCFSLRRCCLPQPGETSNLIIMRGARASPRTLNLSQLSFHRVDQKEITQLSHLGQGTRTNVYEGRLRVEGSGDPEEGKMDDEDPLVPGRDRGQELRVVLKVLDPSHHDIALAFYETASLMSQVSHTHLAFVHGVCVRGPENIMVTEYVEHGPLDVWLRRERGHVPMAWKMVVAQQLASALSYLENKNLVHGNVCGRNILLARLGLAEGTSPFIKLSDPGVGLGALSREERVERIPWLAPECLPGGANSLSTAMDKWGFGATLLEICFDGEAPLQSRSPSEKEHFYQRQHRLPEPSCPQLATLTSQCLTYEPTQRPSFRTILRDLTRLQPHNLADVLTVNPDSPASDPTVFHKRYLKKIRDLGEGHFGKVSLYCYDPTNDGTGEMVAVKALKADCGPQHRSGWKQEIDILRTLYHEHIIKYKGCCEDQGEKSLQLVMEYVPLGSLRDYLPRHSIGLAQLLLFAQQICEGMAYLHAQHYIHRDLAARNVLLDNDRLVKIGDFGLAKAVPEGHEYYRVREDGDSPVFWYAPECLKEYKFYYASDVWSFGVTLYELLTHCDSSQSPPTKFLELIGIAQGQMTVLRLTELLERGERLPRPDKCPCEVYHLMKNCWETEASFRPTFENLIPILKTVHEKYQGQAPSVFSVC

| Structure (SMILES) | inhibition [1] | inhibition [2] | inhibition [3] | inhibition [4] | inhibition [5] | inhibition [6] | inhibition [7] | inhibition [8] | inhibition [9] | inhibition [10] | inhibition [11] | inhibition [12] | inhibition [13] |
| --- | --- | --- | --- | --- | --- | --- | --- | --- | --- | --- | --- | --- | --- |
| Nc1n[nH]c2nnc(-c3c(-c4ccccc4)nn4ccccc34)cc12 | -3.67% | 0.35% | 45.9% | 2.31% | 0.84% | 7.83% | 8.08% | 3.58% | 11.6% | 3.19% | 2.93% | 9.86% | -8.27% |
| Oc1n[nH]c2nnc(-c3c(-c4ccccc4)nn4ccccc34)cc12 | -3.67% | -0.79% | 2.86% | 4.74% | -3.2% | 0.57% | 7.2% | 1.63% | 5.04% | 5% | 2.36% | 5.7% | -5.95% |
